{
  "source": "patent US7351720B2",
  "about": "“N-ureidoalkyl-piperidines as modulators of chemokine receptor activity” (Bristol-Myers Squibb Company, priority 2003, dated 2008)",
  "data": [
    {"smiles": "CC(=O)N(C)[C@@H]1CC[C@@H](NC(=O)Nc2nc(C)cs2)[C@H](CN2CCC[C@@H](Cc3ccc(F)cc3)C2)C1", "note": "[Example 1, N-{(3S,4R)-3-[3S-(4-Fluorobenzyl)-piperidin-1-ylmethyl]-4-[3-(4-methyl-thiazol-2-yl)-ureido]-(R)-cyclohexyl}-N-methyl-acetamide]", "values": [
      {"measurement": "melting point", "value": 191, "unit": "°C"}
    ]}
  ]
}
